Measured values published in patent US20230250292A1, “AROMATIC HYDROCARBON-SOLUBLE ANTHRAQUINONE” (Dow Global Technologies LLC, priority 2020, published 2023).

Legend:
[1] = Maximum (initial) soluble concentration in Aromatic 200 solvent by UV/vis; assay type: physicochemical; conditions: for Measured Initial Concentration: Aromatic 200 (ATOSOL 200ND), targeted 10 wt% solution, filtered, diluted in xylenes, UV/vis against 0.5 and 1.7 wt% calibration
Description: For each Example, a calibration line is generated by preparing 0.5 and 1.7 wt% solutions of each Example using a batch of Aromatic 200 supplied from TOTAL, identified as ATOSOL 200ND, and measuring the UV/vis absorbance at these known concentrations. The solutions are heated to 60° C. with stirring overnight and allowed to cool to ambient temperature for at least several hours, preferably overnight. For the 0.5 and 1.7 wt% solutions for each marker, UV/vis measurements are prepared by diluting an aliquot of each solution (exact weight recorded) into a known amount of xylenes to target an absorbance value below approximately 2.5. […] For other Examples, several drops of the targeted 10 wt% solution are filtered and a known amount of the filtrate is diluted with a known amount of xylenes to target an absorbance value below approximately 2.5. The initial concentration is determined by measuring the absorbance value of a known concentration of the filtered and diluted aliquot taken from the targeted 10 wt% solution. The expected UV/vis absorbance value of the aliquot is calculated based on the calibration standards, and this value is compared against the actual measured absorbance value. Measured values below the expected value indicate the marker is not fully soluble at this 10 wt% concentration.

[2] = Storage stability in Aromatic 200 solvent at -10° C.; assay type: physicochemical; conditions: -10° C. freezer
Description: Storage stability experiments of Examples 1-3 as well as Comparative Examples 4 and 5 as well as Comparative Example 6 (a 50:50 molar physical blend of Comparative Examples 4 and 5) are conducted as follows. For each Example, a calibration line is generated by preparing 0.5 and 1.7 wt% solutions of each Example using a batch of Aromatic 200 supplied from TOTAL, identified as ATOSOL 200ND, and measuring the UV/vis absorbance at these known concentrations. The solutions are heated to 60° C. with stirring overnight and allowed to cool to ambient temperature for at least several hours, preferably overnight. For the 0.5 and 1.7 wt% solutions for each marker, UV/vis measurements are prepared by diluting an aliquot of each solution (exact weight recorded) into a known amount of xylenes to target an absorbance value below approximately 2.5. […] For other Examples, several drops of the targeted 10 wt% solution are filtered and a known amount of the filtrate is diluted with a known amount of xylenes to target an absorbance value below approximately 2.5. The initial concentration is determined by measuring the absorbance value of a known concentration of the filtered and diluted aliquot taken from the targeted 10 wt% solution. The expected UV/vis absorbance value of the aliquot is calculated based on the calibration standards, and this value is compared against the actual measured absorbance value. […]

## Cc1ccc(Nc2ccc(Nc3ccc(C)cc3)c3c2C(=O)c2c(Nc4ccc(C)cc4)ccc(Nc4ccc(C)cc4)c2C3=O)cc1 [Comparative Example 5, 1,4,5,8-tetrakis(4-methylaniline)anthracene-9,10-dione]
[1]; 1.7 wt% solution in Aromatic 200, heated to 60° C. overnight, cooled to ambient
  Solubility of calibration solution in Aromatic 200 (solids observed): solids are observed at 1.7 wt%
[1]
  Measured Initial Concentration: Solids observed at 1.7%, no measurement

## CCCCc1ccc(Nc2ccc(Nc3ccc(CCCC)cc3)c3c2C(=O)c2c(Nc4ccc(CCCC)cc4)ccc(Nc4ccc(CCCC)cc4)c2C3=O)cc1 [Comparative Example 4, 1,4,5,8-tetrakis(4-(n-butyl)phenylamino)anthracene-9,10-dione]
[1]
  Measured Initial Concentration: 7.0 wt%
[2]
  Storage stability: Concentration after storage at -10° C., 4 days: 4.2 wt%
